# Measurements taken from ChEMBL document CHEMBL1132232, “7alpha-Iodo and 7alpha-fluoro steroids as androgen receptor-mediated imaging agents” (J Med Chem, 1999).
# Molecular target: T1, Androgen receptor (Homo sapiens) (UniProt P10275)
# T1 sequence (whole entry): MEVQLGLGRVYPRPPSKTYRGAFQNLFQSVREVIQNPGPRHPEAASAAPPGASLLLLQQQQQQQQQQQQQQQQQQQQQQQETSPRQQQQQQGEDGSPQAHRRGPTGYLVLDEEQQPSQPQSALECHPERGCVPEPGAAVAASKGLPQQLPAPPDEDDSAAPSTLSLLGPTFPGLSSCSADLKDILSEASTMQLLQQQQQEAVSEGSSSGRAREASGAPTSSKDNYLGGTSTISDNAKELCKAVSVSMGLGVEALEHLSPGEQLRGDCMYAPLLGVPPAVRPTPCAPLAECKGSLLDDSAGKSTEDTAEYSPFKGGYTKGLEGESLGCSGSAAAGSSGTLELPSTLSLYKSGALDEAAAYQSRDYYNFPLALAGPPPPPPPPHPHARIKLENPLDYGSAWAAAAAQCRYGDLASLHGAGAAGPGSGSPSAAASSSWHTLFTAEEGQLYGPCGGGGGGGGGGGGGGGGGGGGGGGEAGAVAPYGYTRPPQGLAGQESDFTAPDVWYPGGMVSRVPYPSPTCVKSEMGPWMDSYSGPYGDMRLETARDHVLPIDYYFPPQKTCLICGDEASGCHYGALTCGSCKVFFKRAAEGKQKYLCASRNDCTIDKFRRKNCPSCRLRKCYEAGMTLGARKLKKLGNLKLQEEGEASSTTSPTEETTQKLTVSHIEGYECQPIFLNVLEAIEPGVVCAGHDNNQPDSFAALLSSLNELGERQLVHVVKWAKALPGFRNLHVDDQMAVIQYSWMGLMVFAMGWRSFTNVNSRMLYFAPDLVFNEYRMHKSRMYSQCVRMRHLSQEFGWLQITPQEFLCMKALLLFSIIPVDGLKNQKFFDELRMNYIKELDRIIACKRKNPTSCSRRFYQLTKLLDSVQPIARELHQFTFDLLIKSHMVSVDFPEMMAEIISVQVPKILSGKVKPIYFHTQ
# Settings: CV-1
# Description: Relative stimulatory activity compared to 5-alpha-DHT in CV-1 cells expressing androgen receptor
structure (smiles),measurement,value
CC12CC[C@H]3[C@@H]([C@H](F)CC4CC(=O)CCC43C)[C@@H]1CCC2O (some centres not stated),RSA,60
CC12CC[C@@H]3C4CCC(=O)CC4C[C@@H](I)[C@H]3[C@@H]1CCC2O (some centres not stated),RSA,13
